Source: patent publication US11259516B2, “Method and apparatus for capsular delivery to plants” (priority 2017, dated 2022)

How the values were obtained:
[1] = test system: Toxicodendron succedaneum (Rhus); set-up: key: X indicates that the given herbicide is suitable for controlling the given weed; settings: cited from earlier work
[2] = test system: Gleditsia triacanthos (Honey locust); set-up: key: X indicates that the given herbicide is suitable for controlling the given weed; settings: cited from earlier work
[3] = test system: Inga edulis (Icecream tree); set-up: key: X indicates that the given herbicide is suitable for controlling the given weed; settings: cited from earlier work
[4] = test system: Senna pendula (Winter senna); set-up: key: X indicates that the given herbicide is suitable for controlling the given weed; settings: cited from earlier work
[5] = test system: Cestrum parqui (Green cestrum); set-up: key: X indicates that the given herbicide is suitable for controlling the given weed; settings: cited from earlier work
Acacia spp (Wattles) = test system: Acacia spp (Wattles); set-up: key: X indicates that the given herbicide is suitable for controlling the given weed; settings: cited from earlier work
[6] = test system: Triadica sebifera (Chinese tallow tree); set-up: key: X indicates that the given herbicide is suitable for controlling the given weed; settings: cited from earlier work
[7] = test system: Crataegus sinaica (Azarola); set-up: key: X indicates that the given herbicide is suitable for controlling the given weed; settings: cited from earlier work
[8] = test system: Rubus anglocandicans (Blackberry); set-up: key: X indicates that the given herbicide is suitable for controlling the given weed; settings: cited from earlier work
[9] = test system: Psidium cattleianum (Cherry guava); set-up: key: X indicates that the given herbicide is suitable for controlling the given weed; settings: cited from earlier work
[10] = test system: Celtis sinensis (Chinese celtis); set-up: key: X indicates that the given herbicide is suitable for controlling the given weed; settings: cited from earlier work
Phoenix spp (Palms) = test system: Phoenix spp (Palms); set-up: key: X indicates that the given herbicide is suitable for controlling the given weed; settings: cited from earlier work
Populus spp (Poplars) = test system: Populus spp (Poplars); set-up: key: X indicates that the given herbicide is suitable for controlling the given weed; settings: cited from earlier work
Salix species (Willows) = test system: Salix species (Willows); set-up: key: X indicates that the given herbicide is suitable for controlling the given weed; settings: cited from earlier work
[11] = test system: Schinus terebinthifolius (Broad-leafed pepper tree); set-up: key: X indicates that the given herbicide is suitable for controlling the given weed; settings: cited from earlier work
[12] = test system: Solanum mauritianum (Wild tobacco tree); set-up: key: X indicates that the given herbicide is suitable for controlling the given weed; settings: cited from earlier work
[13] = test system: Leptospermum spp. (Tea trees); set-up: key: X indicates that the given herbicide is suitable for controlling the given weed; settings: cited from earlier work
[14] = test system: Ligustrum sinense (Chinese privet); set-up: key: X indicates that the given herbicide is suitable for controlling the given weed; settings: cited from earlier work
[15] = test system: Ligustrum lucidum (Broad leaf privet); set-up: key: X indicates that the given herbicide is suitable for controlling the given weed; settings: cited from earlier work
[16] = test system: Koelreuteria elegans (Golden rain tree); set-up: key: X indicates that the given herbicide is suitable for controlling the given weed; settings: cited from earlier work
[17] = test system: Eucalyptus dunnii (Dunn's White Gum); assay: Case 3: dose rate effect of Di-Bak G on Eucalyptus dunnii, field trial; format: in vivo; settings: for mortality: single capsule per tree
Method: Generally, one capsule was inserted per 10 cm stem circumference.
Tree health was assessed on a 0-4 scale, 0 being dead and 4 being healthy. Observations were made for evidence of ‘flashback’ in nearby untreated trees.
In this trial, one, two or three capsules of glyphosate were inserted into Eucalyptus dunnii trees irrespective of their circumference. The trial was established on Brooklyn station, Upper Tooloom, near Urbenville on 26 May 2017. GPS co-ordinates were S28° 32.488′ E152° 24.778′. The trees were arranged in a similar manner, and similar in age and size, to the E. saligna trees described in Case 2. Desirable trees were marked and the other trees were treated.
This trial consisted of one replicate of 15 trees for each treatment. […] Tree health was assessed at 4 months (25 Aug. 2017) and 7 months (20 Dec. 2017). […] At the 4 month assessment, samples were collected for observation of dissolution of capsule and herbicide. Rainfall data for the closest recording station (Urbenville) was taken from the Bureau of Meteorology (BOM) internet site. No recent temperature data records were available for this site.

[18] = test system: Pittosporum undulatum (Sweet pittosporum); set-up: key: X indicates that the given herbicide is suitable for controlling the given weed; settings: cited from earlier work
Acer negudo (Box elder) = test system: Acer negudo (Box elder); set-up: key: X indicates that the given herbicide is suitable for controlling the given weed; settings: cited from earlier work
[19] = test system: Schefflera actinophyla (Umbrella tree); set-up: key: X indicates that the given herbicide is suitable for controlling the given weed; settings: cited from earlier work
[20] = test system: Lycium ferocissium (African boxthom); set-up: key: X indicates that the given herbicide is suitable for controlling the given weed; settings: cited from earlier work
[21] = test system: western white gum (Eucalyptus argophloia); assay: Example 3: glyphosate and glyphosate+imazapyr capsules, thinning trial in western white gum plantation
Method: The trial was established at the HQP plantation near Jandowae on 6 Feb. 2018. The trees were planted in rows 4 m apart at 1.5 m spacing. Trees were 6-10 m tall. Trees to be maintained were marked and the other trees were treated.
Four treatments were used, with capsules as follows:
Capsules and applicator used were as described in Example 2.
Herbicide capsules were applied to approx. 10 trees for each of the treatments. The number of capsules applied to each tree was independent of tree circumference which was measured at chest height. The tree circumferences range was from 12 to 25 centimetres. At 4 weeks, a small sample of trees were cut down with a chainsaw and cross-sections of stems containing the sites of insertion of the herbicide capsules removed. These stem pieces were returned to the laboratory and split open longitudinally through the insertion point. Tree health was assessed at 11 weeks (24 Apr. 2018) on a 0-4 scale with 0 being dead and 4 being healthy. Observations were made for evidence of flashback in untreated trees.

Mimosa pigra (Mimosa) = test system: Mimosa pigra (Mimosa); set-up: key: X indicates that the given herbicide is suitable for controlling the given weed; settings: cited from earlier work

O=C(O)CNCP(=O)(O)O [Glyphosate]
suitability of herbicide for control of weed [1]: X
suitability of herbicide for control of weed [2]: X
suitability of herbicide for control of weed [3]: X
suitability of herbicide for control of weed [4]: X
suitability of herbicide for control of weed [5]: X
suitability of herbicide for control of weed (Acacia spp (Wattles)): X
suitability of herbicide for control of weed [6]: X
suitability of herbicide for control of weed [7]: X
suitability of herbicide for control of weed [8]: X
suitability of herbicide for control of weed [9]: X
suitability of herbicide for control of weed [10]: X
suitability of herbicide for control of weed (Phoenix spp (Palms)): X
suitability of herbicide for control of weed (Populus spp (Poplars)): X
suitability of herbicide for control of weed (Salix species (Willows)): X
suitability of herbicide for control of weed [11]: X
suitability of herbicide for control of weed [12]: X
suitability of herbicide for control of weed [13]: X
suitability of herbicide for control of weed [14]: X
suitability of herbicide for control of weed [15]: X
suitability of herbicide for control of weed [16]: X
trees dead ([17]; 2 capsules per tree, at 4 months): ~90%
treated trees killed ([17]; 2 capsules per tree, by 7 months): all had been killed
treated trees killed ([17]; 3 capsules per tree, by 4 months): killed all treated trees
mortality ([17]; at 4 months): ~70%
mortality ([17]; by 7 months): ~80%
suitability of herbicide for control of weed [18]: X
suitability of herbicide for control of weed (Acer negudo (Box elder)): X
suitability of herbicide for control of weed [19]: X
suitability of herbicide for control of weed [20]: X
flashback in the trees marked for retention ([21]; 11 week assessment): no flashback was observed
trees died (health rating 0-4 scale, 0 dead) ([21]; 11 weeks post treatment, 1 or 2 capsules per tree): majority of trees
suitability of herbicide for control of weed (Mimosa pigra (Mimosa)): X
